Key:
[1] = target: PCSK9 secreted by HepG2 cells (Homo sapiens (Human), UniProt Q8NBP7); test: Effect on the concentration of PCSK9 secreted by HepG2 cells (ELISA); type: cell-based; conditions: 48 hours incubation, read-out: Inhibitory activity on PCSK9, IC50
Excerpt: • 1. Experimental objective: To detect the inhibitory effect of the compounds on PCSK9. • 2. Experimental instruments and reagents: • 2.1 Instruments:
• CircuLex Human PCSK9 ELISA kit (MBL: CY-8079); • DMEM (Gibco: 31966-021) • FBS (Sigma: S5394) • Compound plate (Thermo: 1353506) • Complete culture medium: DMEM+10% FBS+1×P/S; • Experimental culture medium: DMEM+10% FBS • Cell strain: HepG2 (ATCC: HB-8065)
A self-adhesive seal was applied, the plate was placed on a plate shaker at room temperature, gently shaken, uniformly mixed, and incubated for 1 hour. • 11) The plate was placed on the plate washer, the washing liquid was set to 350 μL per well, and the plate was washed 4 times repeatedly. • 12) 100 μL/well of an HRP-conjugated detection antibody was added, a self-adhesive seal was applied, and the plate was placed on the plate shaker, well mixed uniformly, and incubated for 1 hour. • 13) The plate was placed on the plate washer, the washing liquid was set to 350 μL per well, and the plate was washed 4 times repeatedly. • 14) 100 μL/well of Substrate reagent was added, and the plate was placed in the dark, applied with a self-adhesive seal, placed on the plate shaker, well mixed uniformly, and incubated for 10-20 minutes. • 15) 100 μL/well of Stop solution (1N H2SO4) was added and mixed uniformly. • 16) The optical density (OD) value in each well was measured in sequence at a wavelength of 450 nm by the microplate reader. Detection was carried out within 30 min after the reaction was stopped.
After the OD values were read by the microplate reader, the OD value of the 0-concentration standard in the standard group was subtracted from the OD values of the standards, control group, and samples to obtain the actual OD values for these wells. A standard curve was plotted with Graphpad and the concentration of the sample was calculated. If the dilution was performed during the sample detection, the calculated sample concentration was necessarily multiplied by the corresponding dilution ratio in the final calculation, which was the actual concentration of the sample. Inhibition rate=(actual concentration in control-actual concentration in sample)/actual concentration in control*100. According to the inhibition rates corresponding to the different concentrations, IC50 was derived by Graphpad.

[2] = Pharmacokinetic determination in mice (plasma); type: in vivo, C57BL/6J mice; conditions: C57 mice, PO administration, 5 mpk; for AUC(0-inf) / half-life / MRT / Cmax: male, C57BL/6J, mouse, 5 mg/kg; for AUC(0-inf): read-out: Area under the curve AUC0-∞; for half-life: read-out: Half-life t1/2 (converted); for MRT: read-out: Mean residence time MRT; for Cmax: read-out: Plasma concentration Cmax
Protocol: C57BL/6J mice were used as test animals to study the pharmacokinetic behavior of the compounds of the present disclosure in mice (plasma) after oral and intravenous administration.
C57 mice, male, purchased from Shanghai Bk Lab Animal Co., Ltd., with animal production license number (SCXK (Shanghai) 2013-0006 NO.311620400001794).
• Preparation of oral drug: 10% Solutol HS15
10 g of Solutol HS15 solid was weighed, dissolved in 90 mL of pure water, uniformly mixed, stirred, and ultrasonically treated to form a clear solution.
The compound of the present disclosure was weighed and dissolved in this solution, uniformly shaken, and ultrasonically treated for 15 minutes to obtain a colorless clear solution with a concentration of 0.5 mg/mL. • Preparation of intravenous drug: 5% DMSO+10% Solutol HS15+85% PBS […]
3 male C57 mice were fasted overnight and then respectively administered PO at a dose of 5 mg/kg and a volume of 10 mL/kg. […]
Before and after administration of mice, 0.04 mL of blood was collected from the orbit at 0.083 (iv), 0.25, 0.5, 1, 2, 4, 8, and 24 hours, and placed in EDTA-K2 test tubes, which was centrifuged at 6000 rpm at 4° C. for 6 min to separate plasma which was stored at −80° C.; and the […] were fed 4 h after administration.
The final determination results were obtained by using an LCMS/MS method.
The main pharmacokinetic parameters were calculated using WinNonlin 6.1.

Chain of PCSK9 secreted by HepG2 cells (Q8NBP7 153-692): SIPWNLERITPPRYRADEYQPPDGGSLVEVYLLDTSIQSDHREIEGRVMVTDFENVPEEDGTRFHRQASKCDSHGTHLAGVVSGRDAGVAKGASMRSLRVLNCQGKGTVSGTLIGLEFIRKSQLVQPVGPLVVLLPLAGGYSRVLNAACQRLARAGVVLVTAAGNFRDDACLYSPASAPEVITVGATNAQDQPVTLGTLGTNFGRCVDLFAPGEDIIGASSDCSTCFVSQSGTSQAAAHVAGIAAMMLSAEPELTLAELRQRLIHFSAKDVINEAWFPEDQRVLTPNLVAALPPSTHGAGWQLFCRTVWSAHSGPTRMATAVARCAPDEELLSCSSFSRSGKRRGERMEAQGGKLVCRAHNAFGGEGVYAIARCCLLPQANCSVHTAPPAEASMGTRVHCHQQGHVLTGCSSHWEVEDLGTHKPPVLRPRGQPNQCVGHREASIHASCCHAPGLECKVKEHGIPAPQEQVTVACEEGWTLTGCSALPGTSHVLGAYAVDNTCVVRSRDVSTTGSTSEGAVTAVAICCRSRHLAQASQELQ
Chain of PCSK9 secreted by HepG2 cells (Q8NBP7 31-152 partner): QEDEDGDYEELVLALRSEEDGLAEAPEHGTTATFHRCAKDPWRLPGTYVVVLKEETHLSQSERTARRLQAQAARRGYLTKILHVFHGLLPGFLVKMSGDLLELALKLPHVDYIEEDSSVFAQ

SMILES	IC50 [1] [µM]	also measured
O=c1ccccn1-c1ccc(N[C@H]2CC[C@H](Nc3ncc(C4CC4)nn3)C2)nc1 [Example 63, 6′-(((1S,3S)-3-((6-cyclopropyl-1,2,4-triazin-3-yl)amino)cyclopentyl)amino)-2H-[1,3′-bipyridinyl]-2-one]	10.5	–
O=c1ccccn1-c1ccc(N[C@H]2CC[C@H](Nc3nsc(C4CC4)n3)C2)nc1 [Example 78, 6′-(((1S,3S)-3-((5-cyclopropyl-1,2,4-thiadiazol-3-yl)amino)cyclopentyl)amino)-2H-[1,3′-bipyridinyl]-2-one]	14.2	–
Cc1ccn2nc(N[C@H]3CC[C@H](Nc4ccc(-n5ccccc5=O)cn4)C3)nc2c1 [Example 87, 6′-(((1S,3S)-3-((7-methyl-[1,2,4]triazolo[1,5-a]pyridin-2-yl)amino)cyclopentyl)amino)-2H-[1,3′-bipyridinyl]-2-one]	–	Time to peak tmax [2]: 0.25 h; AUC(0-inf) [2]: 10700 ng·h/mL; half-life [2]: 4.7 h; MRT [2]: 3.1 h; Cmax [2]: 5510 ng/mL
O=c1c(-c2ccc(N[C@H]3CC[C@H](Nc4ncc(OC(F)F)cn4)C3)nc2)cnc2ccccn12 [Example 108, 3-(6-(((1S,3S)-3-((5-(difluoromethoxy)pyrimidin-2-yl)amino)cyclopentyl)amino)pyridin-3-yl)-4H-pyridino[1,2-a]pyrimidin-4-one]	3.8	–
N#Cc1cnn2c(-c3ccc(N[C@H]4CC[C@H](Nc5ncc(OC(F)F)cn5)C4)nc3)ccnc12 [Example 118, 7-(6-(((1S,3S)-3-((5-(difluoromethoxy)pyrimidin-2-yl)amino)cyclopentyl)amino)pyridin-3-yl) pyrazolo[1,5-a]pyrimidine-3-carbonitrile]	0.5	–
O=C1c2cccnc2CN1c1ccc(N[C@H]2CC[C@H](Nc3ncc(OC(F)(F)Br)cn3)C2)nc1 [Example 123, 6-(6-(((1S,3S)-3-((5-(bromodifluoromethoxy)pyrimidin-2-yl)amino)cyclopentyl)amino)pyridin-3-yl)-6,7-dihydro-5H-pyrrolo[3,4-b]pyridin-5-one]	3.3	–
Cc1nc(N[C@H]2CC[C@H](Nc3ccc(N4Cc5cccnc5C4=O)cn3)C2)nc2ccccc12 [Example 131, 6-(6-(((1S,3S)-3-((4-methylquinazolin-2-yl)amino)cyclopentyl)amino)pyridin-3-yl)-5,6-dihydro-7H-pyrrolo[3,4-b]pyridin-7-one]	2	–
FC(F)Oc1cnc(N[C@H]2CC[C@H](Nc3ccc(-c4cccc5ncnn45)cn3)C2)nc1 [Example 139, (1S,3S)—N1-(5-([1,2,4]triazolo[1,5-a]pyridin-5-yl)pyridin-2-yl)-N3-(5-(difluoromethoxy)pyrimidin-2-yl)cyclopentane-1,3-diamine]	10.4	–
O=S1(=O)c2ncccc2CN1c1ccc(N[C@H]2CC[C@H](Nc3ncc(C(F)(F)F)nn3)C2)nc1 [Example 154, 2-(6-(((1S,3S)-3-((6-(trifluoromethyl)-1,2,4-triazin-3-yl)amino)cyclopentyl)amino)pyridin-3-yl)-2,3-dihydroisothiazolo[5,4-b]pyridine 1,1-dioxide]	13.2	–
Cc1cc2c(cn1)CN(c1ccc(N[C@H]3CC[C@H](Nc4ncc(C5CC5)nn4)C3)nc1)C2=O [Example 160]	6.2	–
O=C1c2ncc(F)cc2CN1c1ccc(N[C@H]2CC[C@H](Nc3nc4cc(C(F)(F)F)ccn4n3)C2)nc1 [Example 163, 3-Fluoro-6-(6-(((1S,3S)-3-((7-(trifluoromethyl)-[1,2,4]triazolo[1,5-a]pyridin-2-yl)amino)cyclopentyl)amino)pyridin-3-yl)-5,6-dihydro-7H-pyrrolo[3,4-b]pyridin-7-one]	12	–

More lines, main results first:

IC50 [1] [µM]	SMILES	also measured
10	CC(C)(O)c1cccn(-c2ccc(N[C@H]3CC[C@H](Nc4ncc(OC(F)F)cn4)C3)nc2)c1=O [Example 64, 6′-(((1S,3S)-3-((5-(difluoromethoxy)pyrimidin-2-yl)amino)cyclopentyl)amino]-3-(2-hydroxyprop-2-yl)-2H-[1,3′-bipyridinyl]-2-one]	–
9	O=C1c2cnccc2CN1c1ccc(N[C@H]2CC[C@H](Nc3ncc(OC(F)F)cn3)C2)nc1 [Example 75, 2-(6-(((1S,3S)-3-((5-(difluoromethoxy)pyrimidin-2-yl)amino)cyclopentyl)amino)pyridin-3-yl)-1,2-dihydro-3H-pyrrolo[3,4-c]pyridin-3-one]	–
21.8	O=S1(=O)CCCN1c1ccc(N[C@H]2CC[C@H](Nc3ncc(OC(F)F)cn3)C2)nc1 [Example 91, 2-(6-(((1S,3S)-3-((5-(difluoromethoxy)pyrimidin-2-yl)amino)cyclopentyl)amino)pyridin-3-yl)-1,1-dioxoisothiazolane]	–
11.6	O=c1n(-c2ccc(N[C@H]3CC[C@H](Nc4ncc(OC(F)F)cn4)C3)nc2)c2nccnc2n1C1CC1 [Example 97, 1-Cyclopropyl-3-(6-(((1S,3S)-3-((5-(difluoromethoxy)pyrimidin-2-yl)amino)cyclopentyl)amino)pyridin-3-yl)-1,3-dihydro-2H-imidazo[4,5-b]pyrazin-2-one]	–
2.6	Cc1cc2c(cn1)CN(c1ccc(N[C@H]3CC[C@H](Nc4ncc(OC(F)F)cn4)C3)nc1)C2=O [Example 116, 2-(6-(((1S,3S)-3-((5-(difluoromethoxy)pyrimidin-2-yl)amino)cyclopentyl)amino)-3-yl)-6-methyl-2,3-dihydro-1H-pyrrolo[3,4-c]pyridin-1-one]	Time to peak tmax [2]: 1 h; AUC(0-inf) [2]: 42500 ng·h/mL; half-life [2]: 5.1 h; MRT [2]: 7.2 h; Cmax [2]: 4060 ng/mL
3.6	Cc1cnn2c(-c3ccc(N[C@H]4CC[C@H](Nc5ncc(OC(F)F)cn5)C4)nc3)cccc12 [Example 117, (1S,3S)—N1-(5-(difluoromethoxy)pyrimidin-2-yl)-N3-(5-(3-methylpyrazolo[1,5-a]pyridin-7-yl)pyridin-2-yl)cyclopentane-1,3-diamine]	–
17.4	CC1(C)CCN(c2ccc(N[C@H]3CC[C@H](Nc4ncc(OC(F)F)cn4)C3)nc2)S1(=O)=O [Example 119]	–
13.5	CC1(C)CCCN(c2ccc(N[C@H]3CC[C@H](Nc4ncc(OC(F)F)cn4)C3)nc2)S1(=O)=O [Example 120]	–
27.3	O=S1(=O)c2ncccc2CN1c1ccc(N[C@H]2CC[C@H](Nc3ncc(OC(F)F)cn3)C2)nc1 [Example 121]	–
9.6	O=C1c2ncc(F)cc2CN1c1ccc(N[C@H]2CC[C@H](Nc3ncc(OC(F)F)cn3)C2)nc1 [Example 136]	–
7.4	O=C1c2cc(F)cnc2CN1c1ccc(N[C@H]2CC[C@H](Nc3ncc(OC(F)F)cn3)C2)nc1 [Example 137]	–
0.5	O=C1c2cc(C(F)(F)F)ncc2CN1c1ccc(N[C@H]2CC[C@H](Nc3ncc(OC(F)F)cn3)C2)nc1 [Example 138, 2-(6-(((1S,3S)-3-((5-(difluoromethoxy)pyrimidin-2-yl)amino)cyclopentyl)amino)pyridin-3-yl)-6-trifluoromethyl-2,3-dihydro-1H-pyrrolo[3,4-c]pyridin-1-one]	–
1.8	O=C1c2nc(C3CC3)ccc2CN1c1ccc(N[C@H]2CC[C@H](Nc3ncc(OC(F)F)cn3)C2)nc1 [Example 141]	–
14.4	CC1(C)C(=O)N(c2ccc(N[C@H]3CC[C@H](Nc4ncc(OC(F)F)cn4)C3)nc2)c2cccnc21 [Example 150]	–
